This passage reports IC50 results from BindingDB's records for doi:10.1111/cbdd.12822 (Wuhan University of Technology, 2016).

Some results are limits rather than exact numbers.

Assay [1] deals with Carboxylic ester hydrolase (Equus caballus, UniProt Q9N1N9). Put plainly: AChE and BuChE Inhibition Assay. As to conditions: pH 8; 25 °C. Here is the method:
(§1) This spectrophotometric assay is based on the reaction of 5,5-dithio-bis(2-nitrobenzoic)acid (DTNB) with thiocholine to yield a colored product. Shimadzu (Kyoto, Japan) UV-1700 UV-vis spectrophotometer was used to record the measurements. The enzyme solutions were prepared at 2.5 units/mL concentrationin 1% gelatin solution. BChE/AChE and compound solutions (50 μL each) in 2% DMSO at 10^-1-10^-6 mM concentration were added to 3 mL phosphate buffer (pH 8 &plusnm; 0.1)followed by incubation for 5 min at 25 °C. The reaction was commenced by the addition of acetylthiocholine iodide (ATC) (10 μL) and DTNB (50 μL) to the enzyme-inhibitor mixture. […] The blank reading contained 10 μL substrate, 50 μL DTNB, 50 μL (2%) DMSO, and 3 mL buffer. The reaction was performed in triplicate.

The target in another assay is Acetylcholinesterase (Electrophorus electricus, UniProt O42275). Description: AChE and BuChE Inhibition Assay. As to conditions: pH 8; 25 °C. The protocol: as §1
Sequence of Acetylcholinesterase (O42275 whole entry): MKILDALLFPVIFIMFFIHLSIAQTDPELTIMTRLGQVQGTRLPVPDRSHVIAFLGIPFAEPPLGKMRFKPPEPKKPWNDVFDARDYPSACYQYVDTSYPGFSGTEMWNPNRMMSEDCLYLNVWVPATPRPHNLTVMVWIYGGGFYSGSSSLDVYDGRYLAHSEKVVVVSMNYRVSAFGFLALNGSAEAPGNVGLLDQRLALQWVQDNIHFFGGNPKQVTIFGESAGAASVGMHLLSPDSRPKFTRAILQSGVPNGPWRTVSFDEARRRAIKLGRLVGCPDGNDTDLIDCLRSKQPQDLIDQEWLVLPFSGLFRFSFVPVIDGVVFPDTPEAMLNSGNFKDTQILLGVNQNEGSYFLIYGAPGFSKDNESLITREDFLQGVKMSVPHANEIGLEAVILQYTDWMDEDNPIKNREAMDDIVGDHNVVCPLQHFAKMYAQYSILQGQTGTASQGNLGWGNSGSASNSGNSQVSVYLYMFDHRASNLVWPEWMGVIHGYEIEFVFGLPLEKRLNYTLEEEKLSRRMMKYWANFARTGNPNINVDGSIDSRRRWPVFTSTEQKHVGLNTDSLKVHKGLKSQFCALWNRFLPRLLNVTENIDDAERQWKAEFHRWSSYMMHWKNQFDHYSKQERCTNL
The target of assay [2] is T1, Amine oxidase [flavin-containing] B (Rattus norvegicus, UniProt P19643).
T1 sequence (P19643 whole entry): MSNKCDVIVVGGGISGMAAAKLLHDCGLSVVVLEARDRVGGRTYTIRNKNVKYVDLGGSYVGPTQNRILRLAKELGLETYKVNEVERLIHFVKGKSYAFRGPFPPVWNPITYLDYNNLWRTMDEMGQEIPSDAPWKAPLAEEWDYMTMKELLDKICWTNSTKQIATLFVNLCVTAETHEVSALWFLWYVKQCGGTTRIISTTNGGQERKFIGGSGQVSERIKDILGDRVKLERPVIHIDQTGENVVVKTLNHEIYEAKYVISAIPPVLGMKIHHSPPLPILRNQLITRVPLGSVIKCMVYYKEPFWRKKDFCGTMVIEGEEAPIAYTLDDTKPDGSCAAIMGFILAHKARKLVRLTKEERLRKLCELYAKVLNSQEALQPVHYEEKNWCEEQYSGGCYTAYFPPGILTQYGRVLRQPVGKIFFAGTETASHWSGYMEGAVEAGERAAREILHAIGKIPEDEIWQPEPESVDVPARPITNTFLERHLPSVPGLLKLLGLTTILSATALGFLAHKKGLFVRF
Description: Monoamine Oxidase Assay. To be noted: pH 7.4; 38 °C.

The target of assay [3] is T2, Amine oxidase [flavin-containing] A (Rattus norvegicus, UniProt P21396).
T2 sequence (P21396 whole entry): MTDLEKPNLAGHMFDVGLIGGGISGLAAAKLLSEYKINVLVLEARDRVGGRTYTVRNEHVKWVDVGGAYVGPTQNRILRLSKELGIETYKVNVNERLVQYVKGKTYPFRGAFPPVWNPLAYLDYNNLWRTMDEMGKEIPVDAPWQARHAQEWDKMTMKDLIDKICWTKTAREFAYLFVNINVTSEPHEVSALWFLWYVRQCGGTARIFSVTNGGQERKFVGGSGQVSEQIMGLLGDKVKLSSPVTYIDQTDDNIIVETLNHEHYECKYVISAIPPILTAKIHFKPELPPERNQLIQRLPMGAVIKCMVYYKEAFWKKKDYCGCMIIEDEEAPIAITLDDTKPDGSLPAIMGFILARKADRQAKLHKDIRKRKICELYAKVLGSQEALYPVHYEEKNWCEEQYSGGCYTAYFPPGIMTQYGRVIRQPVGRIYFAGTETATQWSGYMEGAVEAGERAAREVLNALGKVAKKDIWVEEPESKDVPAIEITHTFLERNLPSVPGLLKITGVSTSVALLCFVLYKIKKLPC
Put plainly: Monoamine Oxidase Assay. To be noted: pH 7.4; 38 °C.

Sequence of Carboxylic ester hydrolase (Q9N1N9 whole entry): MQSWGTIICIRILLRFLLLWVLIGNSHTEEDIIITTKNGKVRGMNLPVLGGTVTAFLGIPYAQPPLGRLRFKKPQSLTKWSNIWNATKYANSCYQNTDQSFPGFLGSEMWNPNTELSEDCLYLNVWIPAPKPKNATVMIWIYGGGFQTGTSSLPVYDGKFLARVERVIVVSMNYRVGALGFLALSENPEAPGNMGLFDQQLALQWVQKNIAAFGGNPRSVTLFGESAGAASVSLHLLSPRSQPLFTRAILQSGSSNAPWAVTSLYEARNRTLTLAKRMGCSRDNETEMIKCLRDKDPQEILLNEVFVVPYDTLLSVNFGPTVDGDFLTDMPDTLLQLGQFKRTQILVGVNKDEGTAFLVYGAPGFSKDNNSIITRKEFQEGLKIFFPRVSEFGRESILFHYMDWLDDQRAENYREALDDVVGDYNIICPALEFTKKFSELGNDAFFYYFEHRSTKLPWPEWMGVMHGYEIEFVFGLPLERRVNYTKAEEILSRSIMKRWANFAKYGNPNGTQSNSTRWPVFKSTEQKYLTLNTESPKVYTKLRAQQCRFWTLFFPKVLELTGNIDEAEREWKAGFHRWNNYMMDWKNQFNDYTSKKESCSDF

With `COc1ccc(/C=C2\CC(C)c3ccccc3C2=O)c(Cl)c1OC` (stereo not given) [(2E)-2-[(2-chloro-3,4-dimethoxyphenyl)methylidene]-4-methyl-1,2,3,4-tetrahydronaphthalen-1-one (3e)], the IC50 in assay [1] stood at 27.2 µM; at Acetylcholinesterase, 0.12 µM; in assay [2] it was 1.9 µM; in assay [3], 8.9 µM.
On the same counts, the results for `COc1ccc(OC)c2c1CC/C(=C\c1ccc(OC)c(OC)c1Cl)C2=O` [(2E)-2-[(2-chloro-3,4-dimethoxyphenyl)methylidene]-5,8-dimethoxy-1,2,3,4-tetrahydronaphthalen-1-one (3w)] are 24.7 µM, 2.4 µM, over 100 µM and over 100 µM.
On the same counts, the results for `COc1ccc(/C=C2\CCc3c(O)cccc3C2=O)c(Cl)c1OC` [(2E)-2-[(2-chloro-3,4-dimethoxyphenyl)methylidene]-5-hydroxy-1,2,3,4-tetrahydronaphthalen-1-one (3h)] are over 100 µM, over 100 µM, 48.9 µM and over 100 µM.
On the same counts, the results for `COc1cccc2c1CC/C(=C\c1ccc(OC)c(OC)c1Cl)C2=O` [(2E)-2-[(2-chloro-3,4-dimethoxyphenyl)methylidene]-5-methoxy-1,2,3,4-tetrahydronaphthalen-1-one (3q)] are over 100 µM, 81.2 µM, 63.7 µM and over 100 µM.
Take `COc1cc2c(cc1OC)C(=O)/C(=C/c1ccc(OC)c(OC)c1Cl)CC2` [(2E)-2-[(2-chloro-3,4-dimethoxyphenyl)methylidene]-6,7-dimethoxy-1,2,3,4-tetrahydronaphthalen-1-one (3t)]: the IC50 is over 100 µM in assay [1], 27.2 µM against Acetylcholinesterase, 5.4 µM in assay [2] and over 100 µM in assay [3].
Take `COc1ccc2c(c1)CC/C(=C\c1ccc(OC)c(OC)c1Cl)C2=O` [(2E)-2-[(2-chloro-3,4-dimethoxyphenyl)methylidene]-6-methoxy-1,2,3,4-tetrahydronaphthalen-1-one (3n)]: the IC50 turned out to be 22.9 µM in assay [1], 14.6 µM at Acetylcholinesterase, 19.2 µM in assay [2] and 47.2 µM in assay [3].
For `COc1ccc(/C=C2\CCc3ccc(F)cc3C2=O)c(Cl)c1OC` [(2E)-2-[(2-chloro-3,4-dimethoxyphenyl)methylidene]-7-fluoro-1,2,3,4-tetrahydronaphthalen-1-one (3ac)] the same measures were over 100 µM, over 100 µM, 2.9 µM and 17.2 µM.
For `COc1cccc(/C=C2\CC(C)c3ccccc3C2=O)c1Cl` (stereo not given) [(2E)-2-[(2-chloro-3-methoxyphenyl)methylidene]-4-methyl-1,2,3,4-tetrahydronaphthalen-1-one (3d)] the same measures were 49.9 µM, 1.9 µM, 3.2 µM and 10.2 µM.
For `COc1cccc(/C=C2\CCc3c(OC)ccc(OC)c3C2=O)c1Cl` [(2E)-2-[(2-chloro-3-methoxyphenyl)methylidene]-5,8-dimethoxy-1,2,3,4-tetrahydronaphthalen-1-one (3v)] the same measures were over 100 µM, 13.2 µM, over 100 µM and over 100 µM.
As to `COc1cccc(/C=C2\CCc3c(O)cccc3C2=O)c1Cl` [(2E)-2-[(2-chloro-3-methoxyphenyl)methylidene]-5-hydroxy-1,2,3,4-tetrahydronaphthalen-1-one (3g)], the IC50 in assay [1] is over 100 µM; on Acetylcholinesterase it was over 100 µM; in assay [2] it was 56.4 µM; in assay [3], over 100 µM.
In the case of `COc1cccc(/C=C2\CCc3c(OC)cccc3C2=O)c1Cl` [(2E)-2-[(2-chloro-3-methoxyphenyl)methylidene]-5-methoxy-1,2,3,4-tetrahydronaphthalen-1-one (3p)], the IC50 was over 100 µM in assay [1], 89.5 µM on Acetylcholinesterase, 78.9 µM in assay [2] and over 100 µM in assay [3].
In the case of `COc1cc2c(cc1OC)C(=O)/C(=C/c1cccc(OC)c1Cl)CC2` [(2E)-2-[(2-chloro-3-methoxyphenyl)methylidene]-6,7-dimethoxy-1,2,3,4-tetrahydronaphthalen-1-one (3s)], the IC50 in assay [1] is over 100 µM; on Acetylcholinesterase, 29.5 µM; in assay [2], 7.2 µM; in assay [3] it was over 100 µM.
`COc1ccc2c(c1)CC/C(=C\c1cccc(OC)c1Cl)C2=O` [(2E)-2-[(2-chloro-3-methoxyphenyl)methylidene]-6-methoxy-1,2,3,4-tetrahydronaphthalen-1-one (3m)]: the IC50 in assay [1] was over 100 µM; on Acetylcholinesterase, 43.9 µM; in assay [2], over 100 µM; in assay [3] it was over 100 µM.
Take `COc1cccc(/C=C2\CCc3ccc(F)cc3C2=O)c1Cl` [(2E)-2-[(2-chloro-3-methoxyphenyl)methylidene]-7-fluoro-1,2,3,4-tetrahydronaphthalen-1-one (3ab)]: the IC50 in assay [1] is over 100 µM; against Acetylcholinesterase, over 100 µM; in assay [2] it was 6.9 µM; in assay [3] it was 19.6 µM.
With `COc1cccc(/C=C2\CCc3ccc([N+](=O)[O-])cc3C2=O)c1Cl` [(2E)-2-[(2-chloro-3-methoxyphenyl)methylidene]-7-nitro-1,2,3,4-tetrahydronaphthalen-1-one (3ae)], the IC50 stood at 27.9 µM in assay [1], 9.14 µM on Acetylcholinesterase, 6.8 µM in assay [2] and 7.23 µM in assay [3].
For `COc1cc(/C=C2\CCc3ccc(Br)cc3C2=O)c(Br)c(OC)c1OC` [(2E)-7-bromo-2-[(2-bromo-3,4,5-trimethoxyphenyl)methylidene]-1,2,3,4-tetrahydronaphthalen-1-one (3aa)] the same measures were over 100 µM, over 100 µM, 44.6 µM and over 100 µM.
For `COc1ccc(/C=C2\CCc3ccc(Br)cc3C2=O)c(Cl)c1OC` [(2E)-7-bromo-2-[(2-chloro-3,4-dimethoxyphenyl)methylidene]-1,2,3,4-tetrahydronaphthalen-1-one (3z)] the same measures were over 100 µM, over 100 µM, 56.4 µM and over 100 µM.
For `COc1cccc(/C=C2\CCc3ccc(Br)cc3C2=O)c1Cl` [(2E)-7-bromo-2-[(2-chloro-3-methoxyphenyl)methylidene]-1,2,3,4-tetrahydronaphthalen-1-one (3y)] the same measures were over 100 µM, over 100 µM, 67.9 µM and over 100 µM.
With `COc1ccc(/C=C2\CCc3ccc(Cl)cc3C2=O)c(Cl)c1OC` [(2E)-7-chloro-2-[(2-chloro-3,4-dimethoxyphenyl)methylidene]-1,2,3,4-tetrahydronaphthalen-1-one (3k)], the IC50 is 56.7 µM in assay [1], over 100 µM at Acetylcholinesterase, over 100 µM in assay [2] and over 100 µM in assay [3].
Consider `COc1cccc(/C=C2\CCc3ccc(Cl)cc3C2=O)c1Cl` [(2E)-7-chloro-2-[(2-chloro-3-methoxyphenyl)methylidene]-1,2,3,4-tetrahydronaphthalen-1-one (3j)], for which the IC50 (in assay [1]; against Acetylcholinesterase; in assay [2]; in assay [3]) was over 100 µM each time.

The IC50 is the concentration that gives 50% inhibition. The low end stands for greater potency in that assay, the high end for weaker potency in that assay.
